Measurements from the supplement of paper PMC8612539.
Converted amounts (≈) assume the structure as drawn.

Columns and labels:
Enterococcus spp. = experiment: minimum inhibitory concentration (MIC)
Procedure: (§1)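 Broth microdilution MIC (Sensititre BOPO7F bovine plate, CLSI methods) of 19 antimicrobials against field isolates of P. multocida, M. haemolytica, H. somni (deep nasopharyngeal swabs) and E. coli, Enterococcus spp. (rectal swabs) from weaned dairy heifers. Incubation 16-24 h at 35 C. MIC is the lowest concentration preventing visible growth. Values with <= or > lie at the tested range limits. Trimethoprim-sulfamethoxazole is given as the trimethoprim component of a 1:19 mixture.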

Mannheimia haemolytica = experiment: minimum inhibitory concentration (MIC)
Procedure: as §1

NC[C@@H]1O[C@H](O[C@H]2[C@@H](O)[C@H](O[C@@H]3[C@@H](O)[C@H](N)C[C@H](N)[C@H]3O[C@H]3O[C@H](CN)[C@@H](O)[C@H](O)[C@H]3N)O[C@@H]2CO)[C@H](N)[C@@H](O)[C@@H]1O [Neomycin]
minimum inhibitory concentration [µg/mL]
Details	Enterococcus spp.	Mannheimia haemolytica
isolate (source animal id): 2	≤ 4	–
isolate (source animal id): 8	–	> 32
isolate (source animal id): 13	–	> 32
isolate (source animal id): 18	–	> 32
isolate (source animal id): 21	–	> 32
isolate (source animal id): 25	–	> 32
isolate (source animal id): 27	–	> 32
isolate (source animal id): 28	–	8 (≈ 13 µM)
isolate (source animal id): 30	–	> 32
isolate (source animal id): 31	–	16 (≈ 26 µM)
isolate (source animal id): 32	–	> 32
isolate (source animal id): 34	–	> 32
isolate (source animal id): 35	> 32	–
isolate (source animal id): 36	–	> 32
isolate (source animal id): 37	–	> 32
isolate (source animal id): 40	–	> 32
isolate (source animal id): 41	–	> 32
isolate (source animal id): 42	> 32	–
isolate (source animal id): 43	–	> 32
isolate (source animal id): 44	> 32	–
isolate (source animal id): 46	–	> 32
isolate (source animal id): 49	–	> 32
isolate (source animal id): 50	–	> 32
isolate (source animal id): 51	–	> 32
isolate (source animal id): 52	–	> 32
isolate (source animal id): 53	–	> 32
isolate (source animal id): 55	–	32 (≈ 52.1 µM)
isolate (source animal id): 56	–	> 32
isolate (source animal id): 57	–	> 32
isolate (source animal id): 79	> 32	–
isolate (source animal id): 88	8 (≈ 13 µM)	–
isolate (source animal id): 91	8 (≈ 13 µM)	–
isolate (source animal id): 92	16 (≈ 26 µM)	–
isolate (source animal id): 100	–	> 32
isolate (source animal id): 103	–	> 32
isolate (source animal id): 107	–	> 32
isolate (source animal id): 108	–	> 32
isolate (source animal id): 111	16 (≈ 26 µM)	–
isolate (source animal id): 112	–	> 32
isolate (source animal id): 113	–	> 32
isolate (source animal id): 121	–	> 32
isolate (source animal id): 122	> 32	> 32
isolate (source animal id): 123	16 (≈ 26 µM)	> 32
isolate (source animal id): 126	–	> 32
isolate (source animal id): 133	32 (≈ 52.1 µM)	> 32
isolate (source animal id): 135	–	> 32
isolate (source animal id): 138	–	> 32
isolate (source animal id): 141	–	> 32
isolate (source animal id): 142	–	> 32
isolate (source animal id): 145	–	> 32
isolate (source animal id): 149	–	≤ 4
isolate (source animal id): 151	–	≤ 4
isolate (source animal id): 152	–	8 (≈ 13 µM)
isolate (source animal id): 154	–	8 (≈ 13 µM)
isolate (source animal id): 158	> 32	–
isolate (source animal id): 159	–	> 32
isolate (source animal id): 162	–	> 32
isolate (source animal id): 168	32 (≈ 52.1 µM)	–
isolate (source animal id): 169	16 (≈ 26 µM)	–
isolate (source animal id): 170	–	> 32
isolate (source animal id): 171	8 (≈ 13 µM)	≤ 4
isolate (source animal id): 172	–	> 32
isolate (source animal id): 173	–	> 32
isolate (source animal id): 175	> 32	–
isolate (source animal id): 177	32 (≈ 52.1 µM)	–
isolate (source animal id): 179	–	> 32
isolate (source animal id): 180	–	> 32
isolate (source animal id): 181	32 (≈ 52.1 µM)	–
isolate (source animal id): 182	32 (≈ 52.1 µM)	–
isolate (source animal id): 183	32 (≈ 52.1 µM)	> 32
isolate (source animal id): 186	–	> 32
isolate (source animal id): 187	16 (≈ 26 µM)	> 32
isolate (source animal id): 188	–	> 32
isolate (source animal id): 190	32 (≈ 52.1 µM)	8 (≈ 13 µM)
isolate (source animal id): 191	–	> 32
isolate (source animal id): 192	–	≤ 4
isolate (source animal id): 194	8 (≈ 13 µM)	–
isolate (source animal id): 195	32 (≈ 52.1 µM)	–
isolate (source animal id): 197	16 (≈ 26 µM)	–
isolate (source animal id): 201	–	> 32
isolate (source animal id): 202	–	> 32
isolate (source animal id): 209	–	> 32
isolate (source animal id): 211	> 32	8 (≈ 13 µM)
isolate (source animal id): 214	> 32	–
isolate (source animal id): 220	–	> 32
isolate (source animal id): 221	–	> 32
isolate (source animal id): 222	> 32	–
isolate (source animal id): 223	16 (≈ 26 µM)	> 32
isolate (source animal id): 228	> 32	–
isolate (source animal id): 230	> 32	–
isolate (source animal id): 233	–	> 32
isolate (source animal id): 235	> 32	–
isolate (source animal id): 236	8 (≈ 13 µM)	–
isolate (source animal id): 237	–	8 (≈ 13 µM)
isolate (source animal id): 239	≤ 4	–
isolate (source animal id): 241	> 32	> 32
isolate (source animal id): 244	8 (≈ 13 µM)	–
isolate (source animal id): 246	16 (≈ 26 µM)	–
isolate (source animal id): 247	> 32	–
isolate (source animal id): 250	16 (≈ 26 µM)	–
isolate (source animal id): 252	> 32	> 32
isolate (source animal id): 253	–	> 32
isolate (source animal id): 259	–	> 32
isolate (source animal id): 260	–	> 32
isolate (source animal id): 262	–	> 32
isolate (source animal id): 268	8 (≈ 13 µM)	–
isolate (source animal id): 282	16 (≈ 26 µM)	> 32
isolate (source animal id): 285	> 32	–
isolate (source animal id): 287	–	> 32
isolate (source animal id): 288	–	8 (≈ 13 µM)
isolate (source animal id): 289	16 (≈ 26 µM)	–
isolate (source animal id): 290	16 (≈ 26 µM)	–
isolate (source animal id): 291	–	8 (≈ 13 µM)
isolate (source animal id): 293	–	> 32
isolate (source animal id): 296	32 (≈ 52.1 µM)	–
isolate (source animal id): 298	16 (≈ 26 µM)	> 32
isolate (source animal id): 299	–	> 32
isolate (source animal id): 300	–	≤ 4
isolate (source animal id): 301	16 (≈ 26 µM)	–
isolate (source animal id): 302	–	> 32
isolate (source animal id): 304	–	> 32
isolate (source animal id): 306	–	≤ 4
isolate (source animal id): 308	–	8 (≈ 13 µM)
isolate (source animal id): 309	–	8 (≈ 13 µM)
isolate (source animal id): 310	> 32	–
isolate (source animal id): 313	–	> 32
isolate (source animal id): 318	–	> 32
isolate (source animal id): 320	16 (≈ 26 µM)	≤ 4
isolate (source animal id): 321	–	> 32
isolate (source animal id): 323	–	> 32
isolate (source animal id): 324	–	> 32
isolate (source animal id): 326	–	> 32
isolate (source animal id): 328	–	> 32
isolate (source animal id): 329	–	> 32
isolate (source animal id): 331	> 32	–
isolate (source animal id): 333	16 (≈ 26 µM)	> 32
isolate (source animal id): 335	–	> 32
isolate (source animal id): 338	–	> 32
isolate (source animal id): 341	> 32	–
